According to the supplement of paper PMC10307832:

Tests used:
Test in all cases: relative viability (nuclei count vs DMSO), 5 days (fraction); higher = more cells survive
Idelalisib + Bortezomib = compound: CC[C@H](Nc1ncnc2[nH]cnc12)c1nc2cccc(F)c2c(=O)n1-c1ccccc1 [Idelalisib] + CC(C)C[C@H](NC(=O)[C@H](Cc1ccccc1)NC(=O)c1cnccn1)B(O)O [Bortezomib] (partner 0.002 µM)
In short: (§1)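 One day after seeding in 1536-well plates, lung cancer cell lines were dosed by pin tool. Dosing was either single-drug or a fixed anchor-drug dose plus five library-drug doses (not always all listed) in √10 steps. After 5 days, nuclei were stained in one fix-and-stain step and counted on 4× images, and relative viability is the nuclei count of treated wells over that of vehicle wells, given as the median of duplicate plates.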

Idelalisib + Linsitinib = compound: CC[C@H](Nc1ncnc2[nH]cnc12)c1nc2cccc(F)c2c(=O)n1-c1ccccc1 [Idelalisib] + C[C@]1(O)C[C@@H](c2nc(-c3ccc4ccc(-c5ccccc5)nc4c3)c3c(N)nccn32)C1 [Linsitinib] (partner 1 µM)
In short: as §1

Pemetrexed + Navitoclax = compound: Nc1nc2[nH]cc(CCc3ccc(C(=O)N[C@@H](CCC(=O)O)C(=O)O)cc3)c2c(=O)[nH]1 [Pemetrexed] + CC1(C)CCC(c2ccc(Cl)cc2)=C(CN2CCN(c3ccc(C(=O)NS(=O)(=O)c4ccc(N[C@H](CCN5CCOCC5)CSc5ccccc5)c(S(=O)(=O)C(F)(F)F)c4)cc3)CC2)C1 [Navitoclax] (partner 0.5 µM)
In short: as §1

Pemetrexed + Phenformin = compound: Nc1nc2[nH]cc(CCc3ccc(C(=O)N[C@@H](CCC(=O)O)C(=O)O)cc3)c2c(=O)[nH]1 [Pemetrexed] + N=C(N)NC(=N)NCCc1ccccc1 [Phenformin] (partner 250 µM)
In short: as §1

Cell Line	relative viability (Idelalisib + Bortezomib; first compound 0.04 µM)	relative viability (Idelalisib + Bortezomib; first compound 0.1265 µM)	relative viability (Idelalisib + Bortezomib; first compound 0.4 µM)	relative viability (Idelalisib + Bortezomib; first compound 1.265 µM)	relative viability (Idelalisib + Bortezomib; first compound 4 µM)	relative viability (Idelalisib + Linsitinib; first compound 0.04 µM)	relative viability (Idelalisib + Linsitinib; first compound 0.1265 µM)	relative viability (Idelalisib + Linsitinib; first compound 0.4 µM)	relative viability (Idelalisib + Linsitinib; first compound 1.265 µM)	relative viability (Idelalisib + Linsitinib; first compound 4 µM)	relative viability (Pemetrexed + Navitoclax; first compound 0.002 µM)	relative viability (Pemetrexed + Navitoclax; first compound 0.006325 µM)	relative viability (Pemetrexed + Navitoclax; first compound 0.02 µM)	relative viability (Pemetrexed + Navitoclax; first compound 0.06325 µM)	relative viability (Pemetrexed + Navitoclax; first compound 0.2 µM)	relative viability (Pemetrexed + Phenformin; first compound 0.002 µM)	relative viability (Pemetrexed + Phenformin; first compound 0.006325 µM)	relative viability (Pemetrexed + Phenformin; first compound 0.02 µM)	relative viability (Pemetrexed + Phenformin; first compound 0.06325 µM)	relative viability (Pemetrexed + Phenformin; first compound 0.2 µM)
201T	1.1	1.07	1.1	1.13	1.08	1.09	1.02	0.937	0.933	0.926	1.11	1.2	1.24	1.26	1.18	0.428	0.494	0.479	0.426	0.403
A549	–	–	–	–	–	0.53	0.544	0.416	0.589	0.446	1.11	1.13	1.25	1.22	1.12	0.161	0.155	0.169	0.161	0.14
A-427	1.03	0.903	0.883	1.05	0.913	1.08	0.896	1.08	1.13	1.05	0.891	0.979	0.978	1.04	0.954	0.298	0.42	0.377	0.308	0.355
ABC-1	0.327	0.243	0.309	0.326	0.288	0.765	0.698	0.827	0.651	0.689	–	–	–	–	–	0.283	0.24	0.26	0.283	0.249
BEN	0.985	0.709	0.756	0.803	0.732	0.908	0.935	0.706	0.931	0.696	0.0683	0.0717	0.0575	0.0762	0.0946	0.288	0.283	0.255	0.272	0.275
CAL-12T	1.08	1.12	0.856	1.24	0.936	0.823	0.906	0.733	0.822	0.584	1.17	1.05	1.14	1.3	1.22	0.502	0.477	0.612	0.58	0.608
COR-L23	0.874	1.01	0.947	1.22	0.956	1	1.04	0.745	0.822	0.864	0.991	0.964	1.04	0.323	0.194	0.394	0.431	0.47	0.26	0.173
COR-L 105	0.906	0.92	0.53	1.02	0.713	1.05	0.83	0.793	0.806	0.595	0.674	0.686	0.878	0.69	0.707	0.405	0.45	0.49	0.524	0.449
Calu-6	1.13	0.991	0.937	1.02	1.07	1.06	1	0.889	0.942	0.93	0.786	0.876	0.897	0.872	0.782	–	–	–	–	–
ChaGo-K-1	1.09	0.945	1.01	1.04	1.17	–	–	–	–	–	1.03	0.969	0.914	0.296	0.306	0.497	0.495	0.507	0.332	0.217
EBC-1	0.646	0.603	0.587	0.505	0.444	0.762	1.03	0.907	0.84	0.637	0.396	0.42	0.474	0.397	0.507	–	–	–	–	–
EKVX	1.1	0.986	1.01	0.87	0.808	0.832	0.97	0.849	0.724	0.758	0.913	0.904	0.961	0.928	0.627	0.246	0.284	0.26	0.254	0.206
EMC-BAC-2	1.12	1.15	1.05	1.13	1.04	0.868	0.8	0.757	0.818	0.748	1.14	1.09	1.21	1.2	1.09	0.481	0.523	0.615	0.58	0.423
EPLC-272H	0.904	0.858	1.05	0.935	0.851	1.49	0.996	0.977	1.13	0.976	1.24	1.05	1.19	1.12	1.05	0.242	0.315	0.333	0.292	0.267
H3255	0.882	0.888	0.807	0.807	0.829	0.959	1.01	0.829	0.857	0.801	0.325	0.508	0.537	0.526	0.464	0.349	0.355	0.414	0.418	0.414
HARA	1.27	1.02	1.08	1.2	1.1	1.21	0.911	0.869	0.887	0.936	1	1.1	1.17	1.08	0.381	0.402	0.447	0.508	0.297	0.137
HCC-15	0.998	1.11	0.899	1.1	1.02	0.909	0.866	0.857	0.89	0.873	0.701	0.668	0.702	0.588	0.482	0.439	0.455	0.531	0.372	0.21
